This note sets out measurements from US9493426B2, “Quinazolinone derivatives useful as FGFR kinase modulators” (priority 2013, dated 2016).

Like-named read-outs stand apart in the source and are kept apart here.

The target of one data set is FGFR3 (h) (Homo sapiens, UniProt P22607). The data set is described as follows: FGFR3 (enzymatic assay), TR-FRET. In kind it is biochemical. (TR-FRET usually uses a lanthanide donor and a delayed reading to cut background.)
Another data set has as its target FGFR1 (h) (Homo sapiens, UniProt P11362). The data set is described as follows: FGFR1 (enzymatic assay), TR-FRET. Format: biochemical.
Data set [1] deals with Ba/F3-FGFR4-transfected cells (Homo sapiens, UniProt P22455, cells depend on it, form not given). The data set is described as follows: Ba/F3-FGFR4 cellular proliferation assay. Format: cell-based. The settings on record: 24 hours, Alamar Blue. Here is the method: Ba/F3-FGFR4 (Cellular Proliferation Assay)
Ba/F3-FGFR4-transfected cells, sequence (P22455 whole entry, looked up, change not shown): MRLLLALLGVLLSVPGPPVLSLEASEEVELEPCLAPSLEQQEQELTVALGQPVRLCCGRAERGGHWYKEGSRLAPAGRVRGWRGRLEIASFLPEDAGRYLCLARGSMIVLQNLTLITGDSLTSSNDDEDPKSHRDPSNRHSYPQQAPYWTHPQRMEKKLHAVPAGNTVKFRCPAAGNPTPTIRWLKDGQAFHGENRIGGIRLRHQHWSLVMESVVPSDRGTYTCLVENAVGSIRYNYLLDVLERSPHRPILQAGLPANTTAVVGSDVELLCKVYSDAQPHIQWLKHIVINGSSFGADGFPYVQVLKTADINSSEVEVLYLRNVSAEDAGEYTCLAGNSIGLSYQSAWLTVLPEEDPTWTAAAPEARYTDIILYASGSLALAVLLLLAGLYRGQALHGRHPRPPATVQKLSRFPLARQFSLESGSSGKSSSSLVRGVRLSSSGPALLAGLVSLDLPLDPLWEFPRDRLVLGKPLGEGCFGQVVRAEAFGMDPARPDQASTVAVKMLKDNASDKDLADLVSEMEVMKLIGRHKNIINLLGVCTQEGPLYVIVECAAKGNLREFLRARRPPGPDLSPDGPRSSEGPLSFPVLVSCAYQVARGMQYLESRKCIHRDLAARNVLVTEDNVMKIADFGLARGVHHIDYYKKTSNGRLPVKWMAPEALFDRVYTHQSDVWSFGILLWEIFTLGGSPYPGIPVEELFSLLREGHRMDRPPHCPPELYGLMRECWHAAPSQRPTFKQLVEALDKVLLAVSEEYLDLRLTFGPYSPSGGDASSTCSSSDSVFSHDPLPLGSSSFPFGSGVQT
(§1) In a 384 well plate, 100 nl of compound dilution in DMSO was sprayed before adding 50 μl cell culture medium (phenol red free RPMI-1640, 10% FBS, 2 mM L-Glutamine and 50 μg/ml Gentamycin) containing 20000 cells per well of Ba/F3-FGFR4-transfected cells. Cells were put in an incubator at 37° C. and 5% CO2. After 24 hours, 10 μl of Alamar Blue solution (0.5 mM K3Fe(CN)6, 0.5 mM K4Fe(CN)6, 0.15 mM Resazurin and 100 mM Phosphate Buffer) was added to the wells, incubated for 4 hours at 37° C. and 5% CO2 before RFU's (Relative Fluorescence Units) (ex. 540 nm., em. 590 nm.) were measured in a fluorescence plate reader.
In this assay, the inhibitory effect of different compound concentrations (range 10 μM to 0.1 nM) was determined and used to calculate an IC50 (M) and pIC50 (−log IC50) value.
Background: Resazurin is reduced to fluorescent resorufin, in cell work by metabolically active cells.

Data set [2] addresses T1, Ba/F3-FGFR1-transfected cells (Homo sapiens, UniProt P11362).
T1 construct: other: minus IL3; 24 hours, Alamar Blue
Put plainly: Ba/F3-FGFR1 (minus IL3 or plus IL3) cellular proliferation assay. The settings on record: 24 hours, Alamar Blue. In kind it is cell-based. Here is the method:
Ba/F3-FGFR1 (Minus IL3 or Plus IL3) (Cellular Proliferation Assay)
as §1, with “Ba/F3-FGFR1-transfected” for “Ba/F3-FGFR4-transfected”
(§2) In this assay, the inhibitory effect of different compound concentrations (range 10 μM to 0.1 nM) was determined and used to calculate an IC50 (M) and pIC50 (−log IC50) value. As a counterscreen the same experiment was performed in the presence of 10 ng/ml murine IL3.

The next data set addresses KDR (h) (Homo sapiens, UniProt P35968). Put plainly: KDR (VEGFR2) (enzymatic assay), TR-FRET. In kind it is biochemical. The settings on record: 3 μM ATP; pIC50 = -log IC50 (M); read-out: VEGFR KDR pIC50 (converted). Here is the method: KDR (VEGFR2) (Enzymatic Assay)
In a final reaction volume of 30 μL, KDR (h) (150 ng/ml) was incubated with 50 mM HEPES pH 7.5, 6 mM MnCl2, 1 mM DTT, 0.1 mM Na3VO4, 0.01% Triton-X-100, 500 nM Btn-Flt3 and 3 μM ATP in the presence of compound (1% DMSO final). After incubation for 120 minutes at room temperature the reaction was stopped with 2.27 nM EU-anti P-Tyr, 7 mM EDTA, 31.25 nM SA-XL-665 and 0.02% BSA which was present for 60 minutes at room temperature. Time-Resolved Fluorescence Resonance Energy Transfer (TR-FRET) signal (ex340 nm. Em 620 nm, em 655 nm) was measured afterwards and results are expressed in RFU (Relative Fluorescence Units). In this assay, the inhibitory effect of different compound concentrations (range 10 μM to 0.1 nM) was determined and used to calculate an IC50 (M) and pIC50 (−log IC50) value.

In the next data set the target is FGFR4 (h) (Homo sapiens, UniProt P22455). Put plainly: FGFR4 (enzymatic assay), TR-FRET. In kind it is biochemical. The settings on record: 5 μM ATP; pIC50 = -log IC50 (M); read-out: FGFR 4 pIC50 (converted).
In data set [3] the target is T2, Ba/F3-FGFR3-transfected cells (Homo sapiens, UniProt P22607, cells depend on it, form not given).
T2 construct: BAF3-FGFR3 (MIN IL3 pIC50); other: minus IL3; 24 hours, Alamar Blue
T2 sequence (P22607 whole entry, looked up, change not shown): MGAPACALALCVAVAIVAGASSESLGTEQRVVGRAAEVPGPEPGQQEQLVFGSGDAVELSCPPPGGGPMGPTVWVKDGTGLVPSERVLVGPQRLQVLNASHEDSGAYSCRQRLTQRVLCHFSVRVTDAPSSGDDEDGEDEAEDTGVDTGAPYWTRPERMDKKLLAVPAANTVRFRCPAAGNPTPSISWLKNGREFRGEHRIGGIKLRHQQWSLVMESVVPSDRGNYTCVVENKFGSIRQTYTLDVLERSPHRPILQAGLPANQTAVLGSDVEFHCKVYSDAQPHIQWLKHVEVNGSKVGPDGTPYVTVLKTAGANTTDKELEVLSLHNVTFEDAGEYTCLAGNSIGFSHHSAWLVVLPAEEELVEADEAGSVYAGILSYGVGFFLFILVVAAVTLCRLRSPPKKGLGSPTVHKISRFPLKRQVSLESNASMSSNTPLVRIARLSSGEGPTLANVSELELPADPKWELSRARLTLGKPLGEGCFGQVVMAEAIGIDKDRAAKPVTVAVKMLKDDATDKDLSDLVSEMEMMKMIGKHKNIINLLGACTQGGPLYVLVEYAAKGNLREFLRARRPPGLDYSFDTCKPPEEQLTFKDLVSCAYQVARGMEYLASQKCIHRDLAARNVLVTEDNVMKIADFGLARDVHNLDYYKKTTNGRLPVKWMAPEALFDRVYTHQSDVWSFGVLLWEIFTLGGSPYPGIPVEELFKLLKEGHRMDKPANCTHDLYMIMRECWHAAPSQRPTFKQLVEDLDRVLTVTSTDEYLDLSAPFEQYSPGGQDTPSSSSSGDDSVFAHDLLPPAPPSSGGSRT
The data set is described as follows: Ba/F3-FGFR3 (minus IL3 or plus IL3) cellular proliferation assay. Format: cell-based. The settings on record: 24 hours, Alamar Blue. Here is the method: Ba/F3-FGFR3 (Minus IL3 or Plus IL3) (Cellular Proliferation Assay)
as §1, with “Ba/F3-FGFR3-transfected” for “Ba/F3-FGFR4-transfected”
as §2

Data set [4] deals with T3, Ba/F3-KDR-transfected cells (Homo sapiens, UniProt P35968, cells depend on it, form not given).
T3 construct: BAF3-KDR (MIN IL3 pIC50); other: minus IL3; 24 hours, Alamar Blue
The data set is described as follows: Ba/F3-KDR (minus IL3 or plus IL3) cellular proliferation assay. Format: cell-based. The settings on record: 24 hours, Alamar Blue. As for the experimental part:
Ba/F3-KDR (Minus IL3 or Plus IL3) (Cellular Proliferation Assay)
as §1, with “Ba/F3-KDR-transfected” for “Ba/F3-FGFR4-transfected”
as §2

The next data set addresses FGFR2 (h) (Homo sapiens, UniProt P21802). The data set is described as follows: FGFR2 (enzymatic assay), TR-FRET. In kind it is biochemical.
The mark [5] stands for this setting: 25 μM ATP, pIC50 = -log IC50 (M), read-out: FGFR3 pIC50 (converted).
Where [6] appears, read: 0.4 μM ATP, pIC50 = -log IC50 (M), read-out: FGFR 2 pIC50 (converted).

T1 sequence (P11362 whole entry, change not shown): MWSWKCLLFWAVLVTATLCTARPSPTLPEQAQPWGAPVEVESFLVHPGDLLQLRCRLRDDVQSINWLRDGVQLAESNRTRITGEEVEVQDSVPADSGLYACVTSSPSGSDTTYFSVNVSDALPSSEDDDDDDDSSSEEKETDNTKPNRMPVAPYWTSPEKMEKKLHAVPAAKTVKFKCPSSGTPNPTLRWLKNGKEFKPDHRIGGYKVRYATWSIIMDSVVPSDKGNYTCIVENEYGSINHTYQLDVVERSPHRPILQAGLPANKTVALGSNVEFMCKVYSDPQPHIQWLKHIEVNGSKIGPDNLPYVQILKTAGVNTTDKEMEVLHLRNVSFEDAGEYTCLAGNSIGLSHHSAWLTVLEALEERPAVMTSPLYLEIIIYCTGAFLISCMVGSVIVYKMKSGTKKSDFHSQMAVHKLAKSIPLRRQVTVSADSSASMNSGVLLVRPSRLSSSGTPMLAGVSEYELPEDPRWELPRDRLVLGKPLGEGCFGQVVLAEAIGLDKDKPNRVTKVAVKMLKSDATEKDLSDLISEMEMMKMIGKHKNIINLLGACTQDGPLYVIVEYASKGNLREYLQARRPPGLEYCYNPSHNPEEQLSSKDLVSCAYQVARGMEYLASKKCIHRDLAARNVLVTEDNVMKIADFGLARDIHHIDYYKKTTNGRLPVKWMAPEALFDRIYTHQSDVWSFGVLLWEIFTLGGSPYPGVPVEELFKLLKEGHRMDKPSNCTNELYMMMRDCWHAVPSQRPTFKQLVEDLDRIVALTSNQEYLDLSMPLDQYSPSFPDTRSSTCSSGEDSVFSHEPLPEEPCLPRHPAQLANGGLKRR
FGFR1 (h), sequence (P11362 22-822): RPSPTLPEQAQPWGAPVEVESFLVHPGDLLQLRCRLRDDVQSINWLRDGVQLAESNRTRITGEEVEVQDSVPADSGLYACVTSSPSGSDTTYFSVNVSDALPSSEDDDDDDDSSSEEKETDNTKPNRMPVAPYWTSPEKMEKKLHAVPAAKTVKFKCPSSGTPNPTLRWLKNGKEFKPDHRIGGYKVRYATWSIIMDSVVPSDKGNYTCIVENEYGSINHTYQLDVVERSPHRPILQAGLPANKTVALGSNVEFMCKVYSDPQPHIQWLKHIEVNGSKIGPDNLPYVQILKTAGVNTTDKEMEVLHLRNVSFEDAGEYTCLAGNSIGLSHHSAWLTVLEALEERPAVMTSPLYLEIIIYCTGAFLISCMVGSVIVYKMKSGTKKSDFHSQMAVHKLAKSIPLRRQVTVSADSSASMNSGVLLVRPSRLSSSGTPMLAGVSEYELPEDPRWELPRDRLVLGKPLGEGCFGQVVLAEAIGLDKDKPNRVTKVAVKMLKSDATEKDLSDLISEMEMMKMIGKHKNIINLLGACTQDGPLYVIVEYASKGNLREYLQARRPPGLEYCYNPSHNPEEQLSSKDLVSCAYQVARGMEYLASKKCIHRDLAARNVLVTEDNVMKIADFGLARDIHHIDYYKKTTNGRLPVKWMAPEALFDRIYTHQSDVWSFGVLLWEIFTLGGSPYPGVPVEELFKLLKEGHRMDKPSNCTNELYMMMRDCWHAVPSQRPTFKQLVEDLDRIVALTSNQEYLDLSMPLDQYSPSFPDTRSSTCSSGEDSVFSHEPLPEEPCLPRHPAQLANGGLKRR
FGFR3 (h), sequence (P22607 23-806): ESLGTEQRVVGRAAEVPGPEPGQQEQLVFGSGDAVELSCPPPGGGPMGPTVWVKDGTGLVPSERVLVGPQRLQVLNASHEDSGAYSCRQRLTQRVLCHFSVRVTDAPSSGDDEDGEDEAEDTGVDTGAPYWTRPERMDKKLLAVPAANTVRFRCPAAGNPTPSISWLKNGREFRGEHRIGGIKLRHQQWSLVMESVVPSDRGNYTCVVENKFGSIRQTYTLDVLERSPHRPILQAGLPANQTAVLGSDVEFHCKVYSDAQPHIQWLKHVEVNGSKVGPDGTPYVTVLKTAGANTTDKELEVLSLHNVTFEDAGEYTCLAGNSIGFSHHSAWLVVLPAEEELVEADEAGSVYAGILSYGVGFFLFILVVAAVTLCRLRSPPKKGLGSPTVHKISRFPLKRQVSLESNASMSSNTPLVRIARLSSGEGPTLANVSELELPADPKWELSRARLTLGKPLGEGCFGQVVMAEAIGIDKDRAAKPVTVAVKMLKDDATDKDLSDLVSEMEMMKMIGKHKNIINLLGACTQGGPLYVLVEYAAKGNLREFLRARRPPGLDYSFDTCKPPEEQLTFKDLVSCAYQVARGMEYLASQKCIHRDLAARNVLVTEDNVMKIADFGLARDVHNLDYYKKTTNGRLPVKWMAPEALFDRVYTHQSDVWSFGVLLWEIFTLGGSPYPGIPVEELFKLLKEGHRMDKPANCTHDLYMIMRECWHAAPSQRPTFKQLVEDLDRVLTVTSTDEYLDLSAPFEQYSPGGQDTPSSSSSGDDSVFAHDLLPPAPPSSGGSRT
FGFR2 (h), sequence (P21802 22-821): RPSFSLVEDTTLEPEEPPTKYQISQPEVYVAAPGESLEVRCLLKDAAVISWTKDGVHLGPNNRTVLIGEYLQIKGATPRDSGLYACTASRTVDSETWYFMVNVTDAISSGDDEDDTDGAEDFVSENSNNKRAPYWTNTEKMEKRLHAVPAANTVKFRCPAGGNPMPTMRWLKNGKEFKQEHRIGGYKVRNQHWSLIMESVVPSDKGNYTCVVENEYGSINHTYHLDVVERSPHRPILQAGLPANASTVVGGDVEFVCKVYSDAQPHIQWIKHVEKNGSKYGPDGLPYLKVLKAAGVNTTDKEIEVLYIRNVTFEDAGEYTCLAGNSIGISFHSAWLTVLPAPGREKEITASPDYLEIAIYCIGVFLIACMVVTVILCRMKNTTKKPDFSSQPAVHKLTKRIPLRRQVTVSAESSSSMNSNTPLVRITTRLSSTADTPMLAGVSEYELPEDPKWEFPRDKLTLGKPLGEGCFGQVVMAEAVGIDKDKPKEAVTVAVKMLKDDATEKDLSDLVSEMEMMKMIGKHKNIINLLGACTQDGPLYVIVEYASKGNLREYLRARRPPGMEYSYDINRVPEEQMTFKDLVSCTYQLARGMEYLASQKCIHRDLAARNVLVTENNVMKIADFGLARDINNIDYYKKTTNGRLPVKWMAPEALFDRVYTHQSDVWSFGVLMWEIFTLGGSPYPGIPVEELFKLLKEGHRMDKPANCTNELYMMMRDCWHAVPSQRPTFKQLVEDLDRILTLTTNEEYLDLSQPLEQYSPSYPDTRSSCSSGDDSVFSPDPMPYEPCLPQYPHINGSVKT

Turning to `COc1cc(OC)c(Cl)c(N(CCNC(C)C)c2ccc3ncn(-c4cnn(C)c4)c(=O)c3c2)c1Cl` [Compound 11], the melting point (as a rule, the temperature, or range, at which the solid turns liquid) is 195 °C. Also, the IC50 on FGFR3 (h) (setting [5]) is 3.98e-08 M. The compound further showed an IC50 on FGFR1 (h) of 12.6 nM. Moreover, in data set [1], the “BAF3-FGFR4 (pIC50)” value is 6.3. Also, the “BAF3-FGFR1 (MIN IL3 pIC50)” value in data set [2] is on record as 7.4. The IC50 on KDR (h) was 5.01e-07 M. For the same compound, the IC50 on FGFR4 (h) was 1.58e-07 M. Besides, in [3], the “BAF3-FGFR3 (MIN IL3 pIC50)” value was 7.3. Further, in data set [4], the “BAF3-KDR (MIN IL3 pIC50)” value is on record as 5.4. Also, on FGFR2 (h) (setting [6]), the IC50 is 6.31e-08 M.
`COc1cc(OC)c(F)c(N(Cc2ncc[nH]2)c2ccc3ncn(-c4cnn(C)c4)c(=O)c3c2)c1` [Compound 15] registered a melting point of 212 °C. Further, the IC50 at FGFR3 (h) (setting [5]) is 2.51e-09 M. Further, the IC50 at FGFR1 (h) was 5.01 nM. In addition, the “BAF3-FGFR4 (pIC50)” value in data set [1] was determined as 5.8. Besides, the “BAF3-FGFR1 (MIN IL3 pIC50)” value in data set [2] was 6.7. The IC50 on KDR (h) is 3.98e-07 M. Also, on FGFR4 (h), the IC50 was 7.94e-09 M. In addition, the “BAF3-FGFR3 (MIN IL3 pIC50)” value in data set [3] is ~7.15. Further, in [4], the “BAF3-KDR (MIN IL3 pIC50)” value was <5. The compound further had an IC50 against FGFR2 (h) of 5.01e-09 M.
For the compound `COc1cc(OC)c(F)c(N(CCO)c2ccc3ncn(-c4cnn(C)c4)c(=O)c3c2)c1` [Compound 16], the melting point turned out to be 164 °C. Further, the IC50 at FGFR3 (h) (setting [5]) was 2.51e-09 M. At FGFR1 (h), the IC50 was 12.6 nM. Also, the “BAF3-FGFR4 (pIC50)” value in [1] is listed as 5.7. Also, the “BAF3-FGFR1 (MIN IL3 pIC50)” value in [2] was found to be 6.3. The IC50 at KDR (h) is 2e-07 M. Further, the IC50 on FGFR4 (h) is 2.51e-08 M. In [3], the “BAF3-FGFR3 (MIN IL3 pIC50)” value amounted to 6.4. Besides, the “BAF3-KDR (MIN IL3 pIC50)” value in data set [4] worked out at 5.2. In addition, at FGFR2 (h) (setting [6]), the IC50 is 5.01e-09 M.
Turning to `COc1cc(OC)c(F)c(N(CCNC(C)C)c2ccc3ncn(-c4cnn(C)c4)c(=O)c3c2)c1` [Compound 17], the melting point was determined as 132 °C. Also, the IC50 at FGFR3 (h) (setting [5]) was 1.58e-08 M. In addition, the IC50 against FGFR1 (h) was 7.94 nM. Besides, the “BAF3-FGFR4 (pIC50)” value in [1] is 6.8. In addition, in [2], the “BAF3-FGFR1 (MIN IL3 pIC50)” value is recorded as 7.6. Besides, the IC50 on KDR (h) was 1.26e-07 M. The IC50 on FGFR4 (h) is 3.16e-08 M. The “BAF3-FGFR3 (MIN IL3 pIC50)” value in data set [3] is on record as 7.7. In [4], the “BAF3-KDR (MIN IL3 pIC50)” value is 5.5. On FGFR2 (h) (setting [6]), the IC50 was 1e-08 M.
With `COc1cc(OC)c(F)c(N(CCO)c2ccc3ncn(-c4cnn(C)c4)c(=O)c3c2)c1F` [Compound 18], the melting point is 165 °C. Further, the IC50 against FGFR3 (h) is 1.58e-09 M. Further, on FGFR1 (h), the IC50 is 1.58 nM. Further, the “BAF3-FGFR4 (pIC50)” value in data set [1] was found to be 6.6. The “BAF3-FGFR1 (MIN IL3 pIC50)” value in [2] is 7.2. The IC50 on KDR (h) was 3.98e-08 M. The IC50 on FGFR4 (h) was 5.01e-09 M. For the same compound, the “BAF3-FGFR3 (MIN IL3 pIC50)” value in data set [3] is ~7.68. Moreover, the “BAF3-KDR (MIN IL3 pIC50)” value in data set [4] was 5.6. Besides, the IC50 on FGFR2 (h) (setting [6]) is 2.51e-09 M.
On to `CNCCN(c1ccc2ncn(-c3cnn(C)c3)c(=O)c2c1)c1c(F)c(OC)cc(OC)c1F` [Compound 20], for which the melting point was 141 °C. The compound further showed an IC50 against FGFR3 (h) of 1.26e-08 M. Besides, on FGFR1 (h), the IC50 was 10 nM. In data set [1], the “BAF3-FGFR4 (pIC50)” value worked out at 6.7. Also, the “BAF3-FGFR1 (MIN IL3 pIC50)” value in data set [2] stood at 7.6. At KDR (h), the IC50 was 1.58e-07 M. The IC50 on FGFR4 (h) was 2.51e-08 M. Moreover, in data set [3], the “BAF3-FGFR3 (MIN IL3 pIC50)” value is given as 7.6. Also, the “BAF3-KDR (MIN IL3 pIC50)” value in [4] is reported as 6.0. At FGFR2 (h) (setting [6]), the IC50 was 1.26e-08 M.
As to `COc1cc(OC)c(F)c(N(Cc2ncc[nH]2)c2ccc3ncn(-c4cnn(C)c4)c(=O)c3c2)c1F` [Compound 22], the melting point worked out at 231 °C. The IC50 on FGFR3 (h) (setting [5]) was 3.16e-09 M. The compound further showed an IC50 at FGFR1 (h) of 3.98 nM. In data set [1], the “BAF3-FGFR4 (pIC50)” value is listed as 6.7. In addition, the “BAF3-FGFR1 (MIN IL3 pIC50)” value in [2] worked out at 6.8. Besides, the IC50 at KDR (h) is 1.26e-07 M. Also, the IC50 on FGFR4 (h) was 5.01e-09 M. Also, the “BAF3-FGFR3 (MIN IL3 pIC50)” value in data set [3] came out at 7.4. Moreover, the “BAF3-KDR (MIN IL3 pIC50)” value in [4] is reported as 5.3. In addition, on FGFR2 (h) (setting [6]), the IC50 was 5.01e-09 M.
The compound `COc1cc(OC)cc(C(=O)c2ccc3ncn(-c4cnn(C)c4)c(=O)c3c2)c1` [Compound 24] came in with a melting point of 194 °C. The IC50 on FGFR3 (h) (setting [5]) was 7.94e-07 M. Besides, the IC50 against FGFR1 (h) is > 1000 nM. In addition, in [1], the “BAF3-FGFR4 (pIC50)” value is recorded as <5. In addition, the “BAF3-FGFR1 (MIN IL3 pIC50)” value in data set [2] is recorded as <5. Also, on KDR (h), the IC50 was > 1e-06 M. The IC50 on FGFR4 (h) was > 1e-06 M. Further, in data set [3], the “BAF3-FGFR3 (MIN IL3 pIC50)” value was <5. Moreover, the “BAF3-KDR (MIN IL3 pIC50)” value in [4] is given as <5. Moreover, the IC50 on FGFR2 (h) (setting [6]) is 7.94e-07 M.
